These results are taken from patent US20150272939A1, “Identification of Small Molecule Inhibitors of Jumonji AT-Rich Interactive Domain 1A (JARID1A) and 1B (JARID1B) Histone Demethylase” (Yale University, priority 2012, published 2015).

The target of one assay is T1, JARID1B (Homo sapiens, UniProt Q9UGL1).
T1 construct: The FLAG tagged full length JARID1B enzyme was expressed in Sf21 insect cells using FLAG-JARID1B baculoviruses; FLAG (N); made in house; host or cells: Sf21 insect cells (baculovirus)
T1 sequence (Q9UGL1 whole entry): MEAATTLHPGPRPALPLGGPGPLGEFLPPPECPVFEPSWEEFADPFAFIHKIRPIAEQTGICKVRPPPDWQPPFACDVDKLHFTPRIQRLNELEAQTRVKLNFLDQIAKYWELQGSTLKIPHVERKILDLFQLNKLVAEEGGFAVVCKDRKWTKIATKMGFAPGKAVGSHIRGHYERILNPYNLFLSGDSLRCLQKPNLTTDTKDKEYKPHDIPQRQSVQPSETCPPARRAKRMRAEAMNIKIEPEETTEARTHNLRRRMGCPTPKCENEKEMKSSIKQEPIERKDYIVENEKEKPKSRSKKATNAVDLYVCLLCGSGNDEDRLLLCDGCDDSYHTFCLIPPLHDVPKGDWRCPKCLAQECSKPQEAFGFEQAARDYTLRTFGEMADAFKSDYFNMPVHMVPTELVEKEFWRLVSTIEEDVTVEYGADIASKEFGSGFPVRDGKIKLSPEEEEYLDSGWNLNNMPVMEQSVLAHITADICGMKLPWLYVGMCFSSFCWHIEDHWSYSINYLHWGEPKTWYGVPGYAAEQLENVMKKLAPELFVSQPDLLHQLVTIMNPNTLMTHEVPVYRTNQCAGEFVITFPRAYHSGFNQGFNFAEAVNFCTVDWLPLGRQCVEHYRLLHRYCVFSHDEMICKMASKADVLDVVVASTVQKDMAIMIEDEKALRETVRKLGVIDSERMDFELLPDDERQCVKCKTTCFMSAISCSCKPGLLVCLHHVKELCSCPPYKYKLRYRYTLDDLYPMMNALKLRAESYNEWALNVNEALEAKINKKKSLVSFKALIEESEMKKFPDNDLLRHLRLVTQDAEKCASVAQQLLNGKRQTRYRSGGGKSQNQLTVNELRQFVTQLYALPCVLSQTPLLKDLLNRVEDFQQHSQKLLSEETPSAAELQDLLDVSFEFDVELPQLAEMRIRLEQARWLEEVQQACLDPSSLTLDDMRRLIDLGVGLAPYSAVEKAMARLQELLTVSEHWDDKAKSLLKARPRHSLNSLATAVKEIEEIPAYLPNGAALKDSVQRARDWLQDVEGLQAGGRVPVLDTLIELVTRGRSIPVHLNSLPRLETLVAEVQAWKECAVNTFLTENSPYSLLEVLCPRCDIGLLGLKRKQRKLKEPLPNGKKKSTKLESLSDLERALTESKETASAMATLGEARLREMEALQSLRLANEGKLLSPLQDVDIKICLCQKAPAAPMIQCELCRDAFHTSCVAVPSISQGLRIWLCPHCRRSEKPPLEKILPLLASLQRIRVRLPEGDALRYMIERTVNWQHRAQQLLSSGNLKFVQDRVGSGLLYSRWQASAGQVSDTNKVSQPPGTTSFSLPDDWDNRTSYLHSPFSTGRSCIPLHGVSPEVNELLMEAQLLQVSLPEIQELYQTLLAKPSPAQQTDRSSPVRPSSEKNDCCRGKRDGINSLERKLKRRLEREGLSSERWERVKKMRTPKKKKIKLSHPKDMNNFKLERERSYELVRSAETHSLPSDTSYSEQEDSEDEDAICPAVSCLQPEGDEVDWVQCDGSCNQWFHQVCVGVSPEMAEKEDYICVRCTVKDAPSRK
Description: FLAG-JARID1B histone demethylase assay with AlphaScreen detection (HTS and dose response).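 Note: FLAG-tagged JARID1B at 4 nM acting on a biotinylated H3K4me3 peptide, demethylation read by AlphaScreen luminescence, with hits checked against bio-H3K4me2 without enzyme.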 It counts as biochemical. For orientation: Bead proximity is the source of the signal in Alpha formats.

The next assay has as its target T2, JARID1C (Homo sapiens, UniProt P41229).
T2 construct: FLAG (N); made in house; host or cells: Sf21 insect cells (baculovirus)
Description: FLAG-JARID1C histone demethylase assay with AlphaScreen detection. It counts as biochemical. How it is done:
Histone demethylase assays were performed in 384 well white plates (Corning 3574). Demethylase buffer conditions for FLAG-JARID1B were as follows: 10 μM α-KG, 100 μM ascorbate, 50 μM (NH4)2Fe(SO4)2, 50 mM Hepes (pH 7.5), 0.01% (v/v) Tween 20, and 0.1% (w/v) bovine serum albumin. The demethylase reactions included 64 nM bio-H3K4me3 peptide alone or in the presence of 4 nM FLAG-JARID1B enzyme in a 10 μl reaction at 25° C. for 30 minutes. As a positive control, 64 nM bio-H3K4me2 peptide was assayed in the absence of enzyme. Assay conditions for FLAG-JARID1C is the same as for FLAG-JARID1B except that 20 nM enzyme was used. For FLAG-JARID1A, the demethylase buffer was similar to FLAG-JARID1B, except that 125 μM α-KG and 13 nM FLAG-JARID1A enzyme were used. The His-FLAG-UTX and FLAG-JMJD3 demethylase assays also employed the same buffer conditions as for FLAG-JARID1B, with 64 nM bio-H3K27me3 peptide assayed with or without 25 nM His-FLAG-UTX enzyme or 50 nM FLAG-JMJD3 (BPS Bioscience, 50115), and 64 nM bio-H3K27me2 peptide as a positive control. JARID1A, JARID1C, UTX, and JMJD3 histone demethylase assays proceeded at 37° C. for 1 hour.
The AlphaScreen General IgG (Protein A) detection kit was obtained from PerkinElmer. Demethylated H3K4 products were detected using AlphaScreen antibody/bead mix containing 7.5 mM ethylenediaminetetraacetic acid (EDTA) and 0.15 μg/ml anti-H3K4me1 antibody in a final volume of 20 μl. For detection of demethylated H3K27 products, the AlphaScreen antibody/bead mix containing 7.5 mM EDTA and 0.15 μg/ml anti-H3K27me2 antibody in a final volume of 20 μl. The luminescence signal was measured using the Envision (PerkinElmer) or Pherastar (BMG Labtech) Platereaders.

For assay [1], the system named is HeLa cells overexpressing full-length JARID1B. Description: H3K4me3 immunofluorescence in cells overexpressing 3xHA-JARID1B. It counts as cell-based. Particulars: 10 μM or 30 μM, 24 hours. How it is done:
pcDNA3.1(−)-3×HA-JARID1B construct was generated by inserting 3×HA-JARID1B between BamHI and XbaI of pcDNA3.1(−) vector. MCF7 cells were plated on 12 mm circle coverslips in 24-well plates and transfected with pcDNA3.1(−)-3×HA-JARID1B in the presence of 0, 10 or 30 μM PBIT. After incubation for 24 hours, the cells were fixed, permeabilized, and stained with antibodies against HA and H3K4me3 for 2 hours. The coverslips were then incubated with anti-mouse Alexa-546 (Invitrogen, A-11003) and goat anti-rabbit Envision (Dako, K4002) for 1 hour. Cy5-Tyramide (Perkin Elmer, NEL775001KT) and 4,6-diamidino-2-phenylindole dihydrochloride (DAPI) (Biotium, 40011) were used to visualize 3×HA-tagged JARID1B and nuclei, respectively. The slides were sealed and analyzed under an Olympus fluorescence microscope.
To determine whether JARID1B could be inhibited by PBIT in cells, HeLa cells overexpressing full-length JARID1B were treated with 10 μM or 30 μM PBIT. As expected, in JARID1B transfected cells, the levels of H3K4me3 decreased dramatically compared with untransfected cells (FIG. 5).

Assay [2] has as its system SKBR3-R cells (trastuzumab resistant). Description: WST-1 cell proliferation assay. It counts as cell-based. To be noted: 30 μM. A general note: Tetrazolium assays rely on reduction of a dye to a coloured formazan, in cell work by metabolically active cells.
The test system of another assay is YUAME melanoma cells. Put plainly: WST-1 cell proliferation assay. The format is cell-based, human. To be noted: 0, 10 and 30 μM. The method, then:
(§1) The colorimetric assay (WST-1 reagent) from Roche (11644807001) was performed in 96 well white clear bottom plates (Costar, 3610). 1,000 cells were seeded per well (in quadruplicate) overnight, and PBIT was added to the cells to the indicated concentration for 72 hrs. 0.01% DMSO was included as the control. The WST-1 reagent was added (5 μl per well) for 4 hrs, and OD 440 nm absorbance (which reflects the number of viable cells) was measured with the BioTek Synergy Mx Platereader.
(§2) A panel of mouse and human melanoma cells was treated with 0, 10 and 30 μM PBIT and their proliferation rates were assessed using WST-1 assays.

For a further assay, the system named is YULAC melanoma cells. Put plainly: WST-1 cell proliferation assay. It counts as cell-based, human. To be noted: 0, 10 and 30 μM. How it is done:
as §1, §2

The next assay has as its system YURIF melanoma cells. Put plainly: WST-1 cell proliferation assay. The format is cell-based, human. Particulars: 0, 10 and 30 μM. How it is done:
as §1, §2

Setting [3] is: compound 10 μM, 64 nM bio-H3K4me3 peptide.

Entries after “also recorded” stand apart in the source; their conditions may differ. Where two headings read alike, the source gives them in different places.

T2 sequence (P41229 whole entry): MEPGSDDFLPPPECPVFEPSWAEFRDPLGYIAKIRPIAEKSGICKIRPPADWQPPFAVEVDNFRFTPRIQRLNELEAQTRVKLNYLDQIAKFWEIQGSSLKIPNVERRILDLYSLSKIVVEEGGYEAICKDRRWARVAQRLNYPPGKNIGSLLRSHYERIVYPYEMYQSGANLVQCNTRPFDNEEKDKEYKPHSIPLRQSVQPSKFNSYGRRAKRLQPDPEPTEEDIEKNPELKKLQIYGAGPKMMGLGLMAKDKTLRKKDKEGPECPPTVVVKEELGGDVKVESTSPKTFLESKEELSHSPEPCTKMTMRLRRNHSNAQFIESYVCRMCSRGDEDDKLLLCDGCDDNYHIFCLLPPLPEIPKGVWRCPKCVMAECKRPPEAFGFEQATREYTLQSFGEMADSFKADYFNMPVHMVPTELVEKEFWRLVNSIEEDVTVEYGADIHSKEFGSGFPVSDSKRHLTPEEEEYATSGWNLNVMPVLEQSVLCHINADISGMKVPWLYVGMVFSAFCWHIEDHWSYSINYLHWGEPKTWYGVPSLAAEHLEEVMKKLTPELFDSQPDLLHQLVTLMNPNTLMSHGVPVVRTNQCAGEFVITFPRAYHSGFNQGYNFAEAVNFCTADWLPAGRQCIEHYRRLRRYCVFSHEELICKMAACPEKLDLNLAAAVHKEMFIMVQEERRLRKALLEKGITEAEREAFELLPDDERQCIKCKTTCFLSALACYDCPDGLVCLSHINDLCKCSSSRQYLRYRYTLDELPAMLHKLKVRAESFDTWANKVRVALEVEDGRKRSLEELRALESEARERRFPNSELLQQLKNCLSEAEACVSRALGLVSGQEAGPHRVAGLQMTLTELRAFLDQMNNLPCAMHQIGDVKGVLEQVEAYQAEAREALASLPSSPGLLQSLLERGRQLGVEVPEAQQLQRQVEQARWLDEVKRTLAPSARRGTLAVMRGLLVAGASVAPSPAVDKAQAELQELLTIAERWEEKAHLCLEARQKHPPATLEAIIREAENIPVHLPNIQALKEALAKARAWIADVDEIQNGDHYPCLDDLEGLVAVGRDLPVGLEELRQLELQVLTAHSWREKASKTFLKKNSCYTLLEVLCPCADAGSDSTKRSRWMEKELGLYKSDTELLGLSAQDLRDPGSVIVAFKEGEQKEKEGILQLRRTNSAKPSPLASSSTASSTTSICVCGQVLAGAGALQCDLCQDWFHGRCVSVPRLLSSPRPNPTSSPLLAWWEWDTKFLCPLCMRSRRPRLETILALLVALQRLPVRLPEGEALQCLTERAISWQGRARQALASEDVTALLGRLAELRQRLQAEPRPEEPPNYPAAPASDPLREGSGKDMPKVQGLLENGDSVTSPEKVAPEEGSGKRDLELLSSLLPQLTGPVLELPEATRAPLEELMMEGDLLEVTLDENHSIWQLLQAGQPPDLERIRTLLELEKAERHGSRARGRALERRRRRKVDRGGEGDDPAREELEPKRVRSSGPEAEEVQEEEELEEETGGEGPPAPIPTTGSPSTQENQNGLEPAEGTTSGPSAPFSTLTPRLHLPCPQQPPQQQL

On to `Cc1ccc(-n2sc3ccccc3c2=O)cc1` [PBIT, 2-4(4-methylphenyl)-1,2-benzisothiazol-3(2H)-one], for which, at JARID1B, the “inhibition of JARID1B (maximum)” value is on record as “up to 95%”. The IC50 was about 3 µM at JARID1B (Fe (II) concentration not stated, read-out: IC50 against JARID1B); 3.17 µM on JARID1B (dose response at 15 μM (low) Fe (II), read-out: IC50 (μM) low Fe (II)); 2.78 µM at JARID1B (dose response at 50 μM (high) Fe (II), read-out: IC50 (μM) high Fe (II)); 4.9 µM on JARID1C (dose response, read-out: IC50 against JARID1C). Further, the JARID1B demethylase activity entry on JARID1B (setting [3]) is reported as “inhibited”. For the same molecule, the JARID1C demethylase activity entry at JARID1C (setting [3]) is “inhibited”. In addition, the “JARID1B overexpression-induced decrease of H3K4me3” value in assay [1] is “prevented; also recorded: decrease was blocked”. Moreover, the “cell proliferation (WST-1)” value in assay [2] was “killed most”. The “sensitivity of proliferation to treatment (WST-1)” value in the assay on YUAME melanoma cells is “sensitive”; in the assay on YULAC melanoma cells, “sensitive”; in the assay with YURIF melanoma cells, “least sensitive”.

As usually defined, the IC50 is the concentration at which inhibition is half-maximal.
